Where two headings read alike, the source gives them in different places.
What was measured:
PIM2 = PIM2 (Homo sapiens (Human), UniProt Q9P1W9); experiment: Dundee profiling
DYRK1A = DYRK1A (Homo sapiens (Human), UniProt Q13627); experiment: Dundee profiling
SYK = SYK (Homo sapiens (Human), UniProt P43405); experiment: Dundee profiling
NEK6 = NEK6 (Homo sapiens (Human), UniProt Q9HC98); experiment: Dundee profiling
JNK1 = JNK1 (Homo sapiens (Human), UniProt P45983); experiment: KinomeScan; format: binding; details: 1 uM
MKK1 = MKK1 (Homo sapiens (Human), UniProt Q02750); experiment: Dundee profiling
Chain of MKK1 (Q02750 whole entry, species assumed): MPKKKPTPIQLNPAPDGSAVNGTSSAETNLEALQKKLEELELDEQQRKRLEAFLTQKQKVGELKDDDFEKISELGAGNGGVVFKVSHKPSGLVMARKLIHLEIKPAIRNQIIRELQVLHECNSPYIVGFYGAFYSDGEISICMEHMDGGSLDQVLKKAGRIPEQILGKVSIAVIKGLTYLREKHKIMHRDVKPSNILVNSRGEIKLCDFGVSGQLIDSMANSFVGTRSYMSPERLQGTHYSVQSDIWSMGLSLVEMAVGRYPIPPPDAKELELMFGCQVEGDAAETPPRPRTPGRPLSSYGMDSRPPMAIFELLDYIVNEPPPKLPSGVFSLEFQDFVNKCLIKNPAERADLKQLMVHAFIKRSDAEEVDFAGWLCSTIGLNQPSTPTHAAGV

p38g MAPK = p38g MAPK (Homo sapiens (Human), UniProt P53778); experiment: Dundee profiling
TGFBR1 = TGFBR1 (Homo sapiens (Human), UniProt P36897); experiment: Dundee profiling
EGFR (G719C) = EGFR (G719C) (Homo sapiens (Human), UniProt P00533, G719C); experiment: KinomeScan; format: binding; details: 1 uM
p38b MAPK = p38b MAPK (Homo sapiens (Human), UniProt Q15759); experiment: Dundee profiling
Chain of p38b MAPK (Q15759 whole entry): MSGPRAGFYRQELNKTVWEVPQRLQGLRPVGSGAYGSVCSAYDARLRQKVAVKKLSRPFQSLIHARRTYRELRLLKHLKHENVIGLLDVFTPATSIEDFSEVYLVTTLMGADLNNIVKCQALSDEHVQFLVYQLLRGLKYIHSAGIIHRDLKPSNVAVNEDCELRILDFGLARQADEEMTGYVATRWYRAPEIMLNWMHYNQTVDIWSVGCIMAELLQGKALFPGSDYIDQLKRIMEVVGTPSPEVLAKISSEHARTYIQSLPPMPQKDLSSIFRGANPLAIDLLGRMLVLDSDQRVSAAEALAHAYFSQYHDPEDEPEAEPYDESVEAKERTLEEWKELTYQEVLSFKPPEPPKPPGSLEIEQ

EPH-B4 = EPH-B4 (Homo sapiens (Human), UniProt P54760); experiment: Dundee profiling
Chain of EPH-B4 (P54760 16-987, species assumed): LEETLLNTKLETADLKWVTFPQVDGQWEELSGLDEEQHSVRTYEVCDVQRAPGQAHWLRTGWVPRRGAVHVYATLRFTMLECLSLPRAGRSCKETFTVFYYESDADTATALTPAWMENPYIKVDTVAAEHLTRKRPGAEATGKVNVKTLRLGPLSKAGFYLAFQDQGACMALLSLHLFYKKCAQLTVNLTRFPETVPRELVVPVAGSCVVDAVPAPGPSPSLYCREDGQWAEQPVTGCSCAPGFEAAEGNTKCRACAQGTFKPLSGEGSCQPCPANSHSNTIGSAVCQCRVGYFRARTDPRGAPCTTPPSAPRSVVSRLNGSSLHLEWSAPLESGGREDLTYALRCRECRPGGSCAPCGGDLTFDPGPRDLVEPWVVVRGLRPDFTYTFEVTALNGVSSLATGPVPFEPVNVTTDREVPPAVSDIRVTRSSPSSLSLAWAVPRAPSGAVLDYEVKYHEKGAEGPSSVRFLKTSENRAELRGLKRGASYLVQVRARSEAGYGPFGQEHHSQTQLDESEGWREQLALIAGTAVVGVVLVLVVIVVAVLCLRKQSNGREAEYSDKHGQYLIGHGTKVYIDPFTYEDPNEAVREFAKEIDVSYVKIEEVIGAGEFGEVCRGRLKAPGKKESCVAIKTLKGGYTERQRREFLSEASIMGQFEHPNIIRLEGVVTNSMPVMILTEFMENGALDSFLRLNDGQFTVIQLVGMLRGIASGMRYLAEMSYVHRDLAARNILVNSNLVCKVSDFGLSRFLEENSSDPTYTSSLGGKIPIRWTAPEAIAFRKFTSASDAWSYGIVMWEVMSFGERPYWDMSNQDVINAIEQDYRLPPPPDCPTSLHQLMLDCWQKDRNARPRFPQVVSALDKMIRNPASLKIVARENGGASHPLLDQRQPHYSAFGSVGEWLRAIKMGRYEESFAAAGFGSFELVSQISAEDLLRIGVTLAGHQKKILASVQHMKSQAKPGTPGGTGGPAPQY

EPHB2 = EPHB2 (Homo sapiens (Human), UniProt P29323); experiment: Dundee profiling
Chain of EPHB2 (P29323 19-1055, species assumed): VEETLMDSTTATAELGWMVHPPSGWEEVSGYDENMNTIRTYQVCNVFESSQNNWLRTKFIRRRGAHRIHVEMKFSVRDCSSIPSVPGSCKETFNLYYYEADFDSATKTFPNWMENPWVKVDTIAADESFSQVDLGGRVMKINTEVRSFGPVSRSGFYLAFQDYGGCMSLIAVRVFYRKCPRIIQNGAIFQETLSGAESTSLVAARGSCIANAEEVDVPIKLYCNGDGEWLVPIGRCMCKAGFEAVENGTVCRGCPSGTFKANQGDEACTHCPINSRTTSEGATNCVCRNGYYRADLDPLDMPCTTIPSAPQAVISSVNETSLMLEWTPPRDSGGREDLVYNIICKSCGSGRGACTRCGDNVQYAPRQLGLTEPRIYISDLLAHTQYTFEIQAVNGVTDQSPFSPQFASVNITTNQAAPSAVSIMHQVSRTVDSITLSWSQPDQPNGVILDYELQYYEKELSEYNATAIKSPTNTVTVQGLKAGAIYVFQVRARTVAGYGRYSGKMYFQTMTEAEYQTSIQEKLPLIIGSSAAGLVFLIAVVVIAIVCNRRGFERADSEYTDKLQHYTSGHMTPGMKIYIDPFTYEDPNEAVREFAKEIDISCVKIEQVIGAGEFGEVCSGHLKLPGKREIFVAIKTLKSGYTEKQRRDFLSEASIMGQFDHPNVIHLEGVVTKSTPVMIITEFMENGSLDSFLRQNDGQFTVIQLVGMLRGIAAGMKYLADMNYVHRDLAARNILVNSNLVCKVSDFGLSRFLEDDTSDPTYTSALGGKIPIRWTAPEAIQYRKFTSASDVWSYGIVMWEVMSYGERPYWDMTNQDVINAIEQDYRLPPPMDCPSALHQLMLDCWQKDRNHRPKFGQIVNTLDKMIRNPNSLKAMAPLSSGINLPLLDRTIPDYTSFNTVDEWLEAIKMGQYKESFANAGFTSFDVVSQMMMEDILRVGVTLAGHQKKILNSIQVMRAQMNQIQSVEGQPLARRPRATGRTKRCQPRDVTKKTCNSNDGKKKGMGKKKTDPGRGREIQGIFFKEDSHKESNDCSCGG

MLK3 = MLK3 (Homo sapiens (Human), UniProt Q16584); experiment: Dundee profiling
Chain of MLK3 (Q16584 whole entry, looked up, species assumed): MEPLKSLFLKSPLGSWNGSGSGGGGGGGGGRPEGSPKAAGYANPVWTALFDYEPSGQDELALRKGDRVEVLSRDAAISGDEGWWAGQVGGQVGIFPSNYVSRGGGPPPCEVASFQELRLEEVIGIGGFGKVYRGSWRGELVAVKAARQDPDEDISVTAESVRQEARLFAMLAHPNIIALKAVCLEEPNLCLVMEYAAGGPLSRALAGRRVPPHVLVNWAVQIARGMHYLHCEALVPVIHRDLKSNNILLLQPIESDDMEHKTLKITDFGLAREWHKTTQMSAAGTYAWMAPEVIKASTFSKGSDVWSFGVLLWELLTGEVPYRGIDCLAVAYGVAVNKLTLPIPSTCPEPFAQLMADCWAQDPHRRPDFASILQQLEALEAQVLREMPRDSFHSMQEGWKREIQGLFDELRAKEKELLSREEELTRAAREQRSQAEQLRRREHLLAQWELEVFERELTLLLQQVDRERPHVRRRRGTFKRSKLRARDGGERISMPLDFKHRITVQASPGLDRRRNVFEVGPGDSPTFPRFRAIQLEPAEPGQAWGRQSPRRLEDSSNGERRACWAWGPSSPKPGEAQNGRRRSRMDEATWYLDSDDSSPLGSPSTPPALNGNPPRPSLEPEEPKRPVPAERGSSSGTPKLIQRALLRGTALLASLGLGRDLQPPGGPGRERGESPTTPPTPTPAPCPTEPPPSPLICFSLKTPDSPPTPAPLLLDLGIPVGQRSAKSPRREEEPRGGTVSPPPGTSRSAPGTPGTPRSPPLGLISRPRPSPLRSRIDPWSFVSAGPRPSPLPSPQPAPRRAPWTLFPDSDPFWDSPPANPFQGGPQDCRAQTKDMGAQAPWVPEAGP

CAMK1 = CAMK1 (Homo sapiens (Human), UniProt Q14012); experiment: Dundee profiling
PAK5 = PAK5 (Homo sapiens (Human), UniProt Q9P286); experiment: Dundee profiling
Chain of PAK5 (Q9P286 whole entry): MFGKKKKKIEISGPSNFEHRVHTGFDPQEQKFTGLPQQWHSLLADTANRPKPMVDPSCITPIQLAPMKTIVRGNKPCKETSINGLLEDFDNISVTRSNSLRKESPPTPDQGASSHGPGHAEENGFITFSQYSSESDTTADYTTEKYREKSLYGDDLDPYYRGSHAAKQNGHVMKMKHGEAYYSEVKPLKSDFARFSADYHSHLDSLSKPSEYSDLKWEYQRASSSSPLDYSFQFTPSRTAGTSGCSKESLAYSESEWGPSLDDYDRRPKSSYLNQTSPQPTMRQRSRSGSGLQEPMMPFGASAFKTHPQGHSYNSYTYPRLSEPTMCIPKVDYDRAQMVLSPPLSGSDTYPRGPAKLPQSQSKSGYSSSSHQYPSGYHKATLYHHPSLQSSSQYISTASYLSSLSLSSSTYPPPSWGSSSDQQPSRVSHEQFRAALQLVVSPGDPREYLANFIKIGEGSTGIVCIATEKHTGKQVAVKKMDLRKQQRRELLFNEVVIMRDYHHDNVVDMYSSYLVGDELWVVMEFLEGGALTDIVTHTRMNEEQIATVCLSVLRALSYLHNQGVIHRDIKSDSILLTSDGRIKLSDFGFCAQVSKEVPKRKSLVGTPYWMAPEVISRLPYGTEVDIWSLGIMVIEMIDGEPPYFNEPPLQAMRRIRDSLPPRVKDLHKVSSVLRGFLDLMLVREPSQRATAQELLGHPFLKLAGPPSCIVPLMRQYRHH

wild-type GFP-LRRK2 = wild-type GFP-LRRK2 (Homo sapiens (Human), UniProt Q5S007); experiment: Ser910/Ser935 phosphorylation immunoblot in HEK293 cells; format: cell-based; details: 90 min
Procedure: (§1) FIG. 2A-2D show inhibition of LRRK2 by Compound 18. HEK293 cells stably expressing FIG. 2A: wild-type GFP-LRRK2, FIG. 2B: GFP-LRRK2[G2019S], FIG. 2C: GFP-LRRK2[G2019S+A2016T], and FIG. 2D: GFP-LRRK2[A2016T] were treated with dimethylsulfoxide (DMSO) or increasing concentrations of Compound 18 for 90 min (1 μM of LRRK2-IN-1 was used as a control). Cell lysates were subjected to immunoblotting for detection of LRRK2 phosphorylated at Ser910 and Ser935 and for total LRRK2.
(§2) HEK293 and Swiss 3T3 cells were cultured in DMEM (Dulbecco's Modified Eagle's medium) supplemented with 10% FBS (fetal bovine serum), 2 mM glutamine and 1× penicillin/streptomycin solution. HEK-293 T-Rex cell lines were cultured in DMEM supplemented with 10% (v/v) FBS and 2 mM glutamine, lx penicillin/streptomycin solution, 15 μg/ml blastocidin and 100 μg/ml hygromycin. T-Rex cultures were induced to express the indicated protein by inclusion of 0.1 μg/ml doxycycline in the culture medium for 24-48 hr. […] Protein concentrations were determined following centrifugation of the lysate at 16,000×g at 4° C. for 20 minutes using the Bradford method with BSA as the standard. […]
(§3) As there are no validated direct phosphorylation substrates of LRRK2, phosphorylation of Ser910 and Ser935, two residues whose phosphorylation is known to be dependent upon LRRK2 kinase activity, was monitored.

GFP-LRRK2[G2019S] = GFP-LRRK2[G2019S] (Homo sapiens (Human), UniProt Q5S007, G2019S); experiment: as above; format: cell-based; details: 90 min
Procedure: as §1, §2, §3

CDC2L5 = CDC2L5 (Homo sapiens (Human), UniProt Q14004); experiment: KinomeScan; format: binding; details: 1 uM
Text: The kinase selectivity of Compound 18 was further evaluated by KinomeScan.

[1] = read-out: percent remaining enzymatic activity, I1, 1 μM
[2] = read-out: percent remaining enzymatic activity, I10
[3] = read-out: percent remaining enzymatic activity

Chain of PIM2 (Q9P1W9 whole entry, looked up, species assumed): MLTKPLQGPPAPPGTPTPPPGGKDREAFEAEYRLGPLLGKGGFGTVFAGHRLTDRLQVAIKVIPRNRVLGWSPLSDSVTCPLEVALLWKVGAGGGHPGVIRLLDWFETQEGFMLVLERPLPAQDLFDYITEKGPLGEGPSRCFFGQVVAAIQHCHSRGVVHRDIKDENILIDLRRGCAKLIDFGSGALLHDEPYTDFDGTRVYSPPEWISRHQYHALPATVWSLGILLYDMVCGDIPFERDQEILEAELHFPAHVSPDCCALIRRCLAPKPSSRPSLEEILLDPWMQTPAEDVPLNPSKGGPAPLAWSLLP
Chain of NEK6 (Q9HC98 whole entry, species assumed): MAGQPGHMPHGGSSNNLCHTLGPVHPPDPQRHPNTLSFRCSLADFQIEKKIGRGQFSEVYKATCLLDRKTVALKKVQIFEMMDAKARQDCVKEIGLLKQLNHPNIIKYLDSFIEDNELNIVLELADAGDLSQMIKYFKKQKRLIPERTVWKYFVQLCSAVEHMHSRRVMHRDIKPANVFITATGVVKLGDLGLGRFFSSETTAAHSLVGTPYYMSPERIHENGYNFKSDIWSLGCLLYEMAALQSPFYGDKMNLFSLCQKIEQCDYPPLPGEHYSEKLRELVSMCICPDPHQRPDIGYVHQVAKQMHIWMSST

CNc1nc(Nc2ccc(C(=O)N3CCOCC3)cc2OC)nc2[nH]cc(Cl)c12 [Compound 18, (4-((5-chloro-4-(methylamino)-7H-pyrrolo[2,3-d]pyrimidin-2-yl)amino)-3-methoxyphenyl)(morpholino)methanone]
remaining activity at 1 µM (PIM2; [1]): 95% | remaining activity at 1 µM (PIM2; [2]): 82% | remaining activity at 1 µM (DYRK1A; [1]): 49% | remaining activity at 1 µM (DYRK1A; [2]): 8% | percent remaining enzymatic activity (SYK; I10): 81% | remaining activity at 1 µM (SYK; [3]): 91% | remaining activity at 1 µM (NEK6; [1]): 101% | remaining activity at 1 µM (NEK6; [2]): 83% | KinomeScan value (JNK1): 60 | remaining activity at 1 µM (MKK1; [1]): 91% | remaining activity at 1 µM (MKK1; [2]): 56% | remaining activity at 1 µM (p38g MAPK; [1]): 116% | remaining activity at 1 µM (p38g MAPK; [2]): 96% | remaining activity at 1 µM (TGFBR1; [1]): 128% | remaining activity at 1 µM (TGFBR1; [2]): 119% | KinomeScan value (EGFR (G719C)): 91 | remaining activity at 1 µM (p38b MAPK; [1]): 108% | remaining activity at 1 µM (p38b MAPK; [2]): 79% | remaining activity at 1 µM (EPH-B4; [1]): 80% | remaining activity at 1 µM (EPH-B4; [2]): 86% | percent remaining enzymatic activity (EPHB2; I10): 58% | remaining activity at 1 µM (EPHB2; [3]): 60% | percent remaining enzymatic activity (MLK3; I10): 35% | remaining activity at 1 µM (MLK3; [3]): 78% | remaining activity at 1 µM (CAMK1; [1]): 80% | remaining activity at 1 µM (CAMK1; [2]): 34% | remaining activity at 1 µM (PAK5; [1]): 89% | remaining activity at 1 µM (PAK5; [2]): 70% | concentration giving substantial dephosphorylation of Ser910 and Ser935 (wild-type GFP-LRRK2): approximately 0.3 | concentration giving substantial dephosphorylation of Ser910 and Ser935 (GFP-LRRK2[G2019S]): approximately 0.3 | KinomeScan value (CDC2L5): 100

From patent US10913744B2, “LRRK2 inhibitors and methods of making and using the same” (Dana-Farber Cancer Institute, Inc., priority 2015, dated 2021)
